# Test results from patent US12162840B2, “Herbicidal compositions” (SYNGENTA PARTICIPATIONS AG, priority 2018, dated 2024).
# System: cool season plant species
# Assay: B2 Post-emergence efficacy Test 2, cool season plant species
# Type: in vivo
# Details: 15 days after application, 0=no damage, 100=total kill
# How it was run: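 Herbicidal effect rated visually 0 (no damage) to 100 (complete kill) at 15 days post-treatment. Post-emergence spray at 12 days used an IF50 formulation with 0.2% v/v Genapol XO80 adjuvant; glasshouse 24/18 or 20/16 °C, 16 h light, 65% humidity.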
structure (smiles),measurement,setting,value
Cc1nn(C)c(=O)c(-c2c(F)ccc(Cl)c2CCc2ccc(F)cc2)c1OC(=O)C(C)C [Compound 1.125],Herbicidal activity (0-100 scale) ALOMY,15 g/Ha,10
same,Herbicidal activity (0-100 scale) ALOMY,30 g/Ha,10
same,Herbicidal activity (0-100 scale) ALOMY,60 g/Ha,30
same,Herbicidal activity (0-100 scale) ALOMY,125 g/Ha,30
same,Herbicidal activity (0-100 scale) ALOMY,250 g/Ha,60
same,Herbicidal activity (0-100 scale) ALOMY,500 g/Ha,40
same,Herbicidal activity (0-100 scale) AVEFA,15 g/Ha,30
same,Herbicidal activity (0-100 scale) AVEFA,30 g/Ha,40
same,Herbicidal activity (0-100 scale) AVEFA,60 g/Ha,60
same,Herbicidal activity (0-100 scale) AVEFA,125 g/Ha,70
same,Herbicidal activity (0-100 scale) AVEFA,250 g/Ha,70
same,Herbicidal activity (0-100 scale) AVEFA,500 g/Ha,80
same,Herbicidal activity (0-100 scale) BEAVA,15 g/Ha,70
same,Herbicidal activity (0-100 scale) BEAVA,30 g/Ha,60
same,Herbicidal activity (0-100 scale) BEAVA,60 g/Ha,60
same,Herbicidal activity (0-100 scale) BEAVA,125 g/Ha,70
same,Herbicidal activity (0-100 scale) BEAVA,250 g/Ha,70
same,Herbicidal activity (0-100 scale) BEAVA,500 g/Ha,70
same,Herbicidal activity (0-100 scale) BROTE,15 g/Ha,0
same,Herbicidal activity (0-100 scale) BROTE,30 g/Ha,0
same,Herbicidal activity (0-100 scale) BROTE,60 g/Ha,0
same,Herbicidal activity (0-100 scale) BROTE,125 g/Ha,0
same,Herbicidal activity (0-100 scale) BROTE,250 g/Ha,10
same,Herbicidal activity (0-100 scale) BROTE,500 g/Ha,10
same,Herbicidal activity (0-100 scale) BRSNN,15 g/Ha,80
same,Herbicidal activity (0-100 scale) BRSNN,30 g/Ha,80
same,Herbicidal activity (0-100 scale) BRSNN,60 g/Ha,80
same,Herbicidal activity (0-100 scale) BRSNN,125 g/Ha,90
same,Herbicidal activity (0-100 scale) BRSNN,250 g/Ha,90
same,Herbicidal activity (0-100 scale) BRSNN,500 g/Ha,90
same,Herbicidal activity (0-100 scale) CHEAL,15 g/Ha,90
same,Herbicidal activity (0-100 scale) CHEAL,30 g/Ha,90
same,Herbicidal activity (0-100 scale) CHEAL,60 g/Ha,90
same,Herbicidal activity (0-100 scale) CHEAL,125 g/Ha,90
same,Herbicidal activity (0-100 scale) CHEAL,250 g/Ha,90
same,Herbicidal activity (0-100 scale) CHEAL,500 g/Ha,90
same,Herbicidal activity (0-100 scale) GALAP,30 g/Ha,20
same,Herbicidal activity (0-100 scale) GALAP,60 g/Ha,20
same,Herbicidal activity (0-100 scale) GALAP,125 g/Ha,30
same,Herbicidal activity (0-100 scale) GALAP,250 g/Ha,40
same,Herbicidal activity (0-100 scale) GALAP,500 g/Ha,70
same,Herbicidal activity (0-100 scale) HORVW,15 g/Ha,0
same,Herbicidal activity (0-100 scale) HORVW,30 g/Ha,0
same,Herbicidal activity (0-100 scale) HORVW,60 g/Ha,10
same,Herbicidal activity (0-100 scale) HORVW,125 g/Ha,10
same,Herbicidal activity (0-100 scale) HORVW,250 g/Ha,10
same,Herbicidal activity (0-100 scale) HORVW,500 g/Ha,10
same,Herbicidal activity (0-100 scale) KCHSC,15 g/Ha,0
same,Herbicidal activity (0-100 scale) KCHSC,30 g/Ha,20
same,Herbicidal activity (0-100 scale) KCHSC,60 g/Ha,30
same,Herbicidal activity (0-100 scale) KCHSC,125 g/Ha,50
same,Herbicidal activity (0-100 scale) KCHSC,250 g/Ha,60
same,Herbicidal activity (0-100 scale) KCHSC,500 g/Ha,70
same,Herbicidal activity (0-100 scale) LOLPE,15 g/Ha,40
same,Herbicidal activity (0-100 scale) LOLPE,30 g/Ha,50
same,Herbicidal activity (0-100 scale) LOLPE,60 g/Ha,60
same,Herbicidal activity (0-100 scale) LOLPE,125 g/Ha,70
same,Herbicidal activity (0-100 scale) LOLPE,250 g/Ha,80
same,Herbicidal activity (0-100 scale) LOLPE,500 g/Ha,90
same,Herbicidal activity (0-100 scale) POAAN,15 g/Ha,0
same,Herbicidal activity (0-100 scale) POAAN,30 g/Ha,10
same,Herbicidal activity (0-100 scale) POAAN,60 g/Ha,20
same,Herbicidal activity (0-100 scale) POAAN,125 g/Ha,60
same,Herbicidal activity (0-100 scale) POAAN,250 g/Ha,70
same,Herbicidal activity (0-100 scale) POAAN,500 g/Ha,60
same,Herbicidal activity (0-100 scale) POLCO,15 g/Ha,90
same,Herbicidal activity (0-100 scale) POLCO,30 g/Ha,90
same,Herbicidal activity (0-100 scale) POLCO,60 g/Ha,90
same,Herbicidal activity (0-100 scale) POLCO,125 g/Ha,90
same,Herbicidal activity (0-100 scale) POLCO,250 g/Ha,90
same,Herbicidal activity (0-100 scale) POLCO,500 g/Ha,90
same,Herbicidal activity (0-100 scale) SINAR,15 g/Ha,60
same,Herbicidal activity (0-100 scale) SINAR,30 g/Ha,60
same,Herbicidal activity (0-100 scale) SINAR,60 g/Ha,80
same,Herbicidal activity (0-100 scale) SINAR,125 g/Ha,90
same,Herbicidal activity (0-100 scale) SINAR,250 g/Ha,90
same,Herbicidal activity (0-100 scale) SINAR,500 g/Ha,90
same,Herbicidal activity (0-100 scale) STEME,15 g/Ha,90
same,Herbicidal activity (0-100 scale) STEME,30 g/Ha,90
same,Herbicidal activity (0-100 scale) STEME,60 g/Ha,90
same,Herbicidal activity (0-100 scale) STEME,125 g/Ha,90
same,Herbicidal activity (0-100 scale) STEME,250 g/Ha,90
same,Herbicidal activity (0-100 scale) STEME,500 g/Ha,90
same,Herbicidal activity (0-100 scale) TRZAW,15 g/Ha,0
same,Herbicidal activity (0-100 scale) TRZAW,30 g/Ha,10
same,Herbicidal activity (0-100 scale) TRZAW,60 g/Ha,10
same,Herbicidal activity (0-100 scale) TRZAW,125 g/Ha,20
same,Herbicidal activity (0-100 scale) TRZAW,250 g/Ha,30
same,Herbicidal activity (0-100 scale) TRZAW,500 g/Ha,50
same,Herbicidal activity (0-100 scale) VERPE,15 g/Ha,70
same,Herbicidal activity (0-100 scale) VERPE,30 g/Ha,70
same,Herbicidal activity (0-100 scale) VERPE,60 g/Ha,70
same,Herbicidal activity (0-100 scale) VERPE,125 g/Ha,80
same,Herbicidal activity (0-100 scale) VERPE,250 g/Ha,80
same,Herbicidal activity (0-100 scale) VERPE,500 g/Ha,90
